# Measurements taken from US7025958B2, “Use of amidoamines to treat or prevent acanthamoeba and fungal infections” (Alcon, Inc., priority 2000, dated 2006).
# Columns and labels:
# Type in all cases: cell-based
# [1] = system: Acanthamoeba polyphaga cysts (ATCC 30871); experiment: Dose/response of survivors, Acanthamoeba polyphaga cysts in Mueller Hinton Broth
# Procedure: (§1) A 0.1% stock solution of Compound No. 4 was prepared. The compound was dissolved in TRIS buffer^1 by gently heating and swirling. The final pH was adjusted to 7.8 with 1N HCl. […] To prepare the samples, a 0.1% stock solution of Compound No. 4 was serially diluted in Mueller Hinton Broth (MHB)^2,3 (BBL) to provide concentrations of 0.01 w/v %, 0.001 w/v %, 0.0001 w/v %, and 0.00001 w/v %, respectively. Solutions containing 0.02 w/v % polyhexamethylene biguanide (PHMP) and 0.1 w/v % chlorhexidine, respectively, were also utilized as controls.
# The samples were inoculated with low levels (approximately 3.0×10^2 organisms/mL) of the test organism. The test organism was Acanthamoeba polyphaga cysts (ATCC 30871) produced 14 days in. PYG and then 14 days in Page's saline, followed by one month of refrigeration. The samples were checked for survivors at 4, 24, and 48 hours post inoculation. The samples were serially diluted in Dey-Engley neutralizing broth (DE) (Difco) and plated in quadruplicate in tissue culture plate wells containing non-nutrient agar overlaid with E. coli. Plates were sealed and incubated for 14 days at 30-35° C. Results were recorded and counts calculated using the Reed and Muench computation.
# [2] = system: F. solani ATCC 36031; experiment: Dose/response of survivors against fungi, F. solani
# Procedure: as §1, with “provide solutions containing Compound No. 4 in” for “provide”, “PHMB” for “polyhexamethylene biguanide (PHMP)”, “were” for “were also”
# (§2) The samples were inoculated with low levels (approximately 1.0×10^3 organisms/mL) of the test organism. The test organisms included the fungi C. albicans ATCC 10231 and F. solani ATCC 36031. The samples were checked for survivors at 4, 24, and 48 hours post inoculation. The samples were serially diluted in Dey Engley neutralizing broth (DE) (Difco) and plated in duplicate using trypicase soy agar containing 0.07% asolectin and 0.5% Tween 80. The plates were incubated for 5 days at 20-25° C. and plate counts recorded.
# [3] = system: C. albicans ATCC 10231; experiment: Dose/response of survivors against fungi, C. albicans
# Procedure: as §1, with “provide solutions containing Compound No. 4 in” for “provide”, “PHMB” for “polyhexamethylene biguanide (PHMP)”, “were” for “were also”
# as §2
# [4] = system: Acanthamoeba Strain 1501-3D (NNA cysts); experiment: Minimum cysticidal concentration, strain 1501-3D; conditions: 24 hours exposure at 32° C.
# Procedure: (§3) Two different vehicles were utilized to prepare solutions containing Compound No. 4. The first vehicle was the same as the vehicle described in Formulation No. 4 (see Example 2, above), and the second vehicle was a 2 mM TRIS. HCl solution (pH 7.8).
# (§4) Minimum cysticidal levels of Compound No. 4 for Acanthamoeba keratitis strains was determined as follows. Briefly, 100 μl serial, two-fold dilutions were prepared across the rows of a microtitre plate. Control wells received only diluent. An equal volume of five strains of Acanthamoba cysts were added to the wells and the plates sealed and incubated at 32° C. for 24 hours. Using a multi-channel pipette, the solutions in the wells were removed and replaced with 200 μl of ¼ strength Lactated Ringer's solution and left at room temperature for 15 minutes. The washing procedure was repeated twice more before finally filling the wells with 100 μl of ¼ strength Lactated Ringer's solution containing live E. coli at an O.D.540 of 0.2. The plates were then sealed and incubated at 32° C. for up to 7 days.
# (§5) The MCC values for Compound No. 4 and chlorhexidine against the five Acanthamoeba strains (NNA cysts) tested are set forth in Table 4, below.
# [5] = system: Acanthamoeba Strain Ros (NNA cysts); experiment: Minimum cysticidal concentration, strain Ros; conditions: 24 hours exposure at 32° C.
# Procedure: as §3, §4, §5
# [6] = system: Acanthamoeba Strain Uni Tap Water 1501-3D (NNA cysts); experiment: Minimum cysticidal concentration, strain Uni Tap Water 1501-3D; conditions: 24 hours exposure at 32° C.
# Procedure: as §3, §4, §5
# [7] = system: Acanthamoeba Strain Watson (NNA cysts); experiment: Minimum cysticidal concentration, strain Watson; conditions: 24 hours exposure at 32° C.
# Procedure: as §3, §4, §5
# [8] = system: Acanthamoeba Strain 1501-2g (NNA cysts); experiment: Minimum cysticidal concentration, strain 1501-2g; conditions: 24 hours exposure at 32° C.
# Procedure: as §3, §4, §5
# [9] = 0.00001% Compound No. 4, 0 hours
# [10] = 0.00001% Compound No. 4, 4 hours
# [11] = 0.00001% Compound No. 4, 24 hours
# [12] = 0.00001% Compound No. 4, 48 hours
# [13] = 0.0001% Compound No. 4, 0 hours
# [14] = 0.0001% Compound No. 4, 4 hours
# [15] = 0.0001% Compound No. 4, 24 hours
# [16] = 0.0001% Compound No. 4, 48 hours
# [17] = 0.001% Compound No. 4, 24 hours
# [18] = 0.001% Compound No. 4, 48 hours
molecule,measurement,setting,value
"CCCCCCCCCCCCCC(=O)NCCCN(C)C [Compound No. 4, N,N-Dimethyl-N′-tetradecanoyl-1,3-propylenediamine]",Number of Surviving Organisms,"[1]; 0.00001% Compound No. 4, 0 hrs",3.2 × 10^2
same,Number of Surviving Organisms,"[1]; 0.00001% Compound No. 4, 4 hrs",3.2 × 10^3
same,Number of Surviving Organisms,"[1]; 0.00001% Compound No. 4, 24 hrs",3.2 × 10^3
same,Number of Surviving Organisms,"[1]; 0.00001% Compound No. 4, 48 hrs",3.2 × 10^3
same,Number of Surviving Organisms,"[1]; 0.0001% Compound No. 4, 0 hrs",3.2 × 10^2
same,Number of Surviving Organisms,"[1]; 0.0001% Compound No. 4, 4 hrs",3.2 × 10^3
same,Number of Surviving Organisms,"[1]; 0.0001% Compound No. 4, 24 hrs",2.1 × 10^3
same,Number of Surviving Organisms,"[1]; 0.0001% Compound No. 4, 48 hrs",2.1 × 10^3
same,Number of Surviving Organisms,"[1]; 0.001% Compound No. 4, 0 hrs",3.2 × 10^2
same,Number of Surviving Organisms,"[1]; 0.001% Compound No. 4, 4 hrs",3.2 × 10^2
same,Number of Surviving Organisms,"[1]; 0.001% Compound No. 4, 24 hrs",1.7 × 10^1
same,Number of Surviving Organisms,"[1]; 0.001% Compound No. 4, 48 hrs",<10
same,Number of Surviving Organisms,"[1]; 0.01% Compound No. 4, 0 hrs",3.2 × 10^2
same,Number of Surviving Organisms,"[1]; 0.01% Compound No. 4, 4 hrs",<10
same,Number of Surviving Organisms,"[1]; 0.01% Compound No. 4, 24 hrs",<10
same,Number of Surviving Organisms,"[1]; 0.01% Compound No. 4, 48 hrs",<10
same,Number of Surviving Organisms,[2]; [9],4.9 × 10^3
same,Number of Surviving Organisms,[2]; [10],5.9 × 10^3
same,Number of Surviving Organisms,[2]; [11],1.0 × 10^4
same,Number of Surviving Organisms,[2]; [12],4.8 × 10^3
same,Number of Surviving Organisms,[2]; [13],4.9 × 10^3
same,Number of Surviving Organisms,[2]; [14],6.9 × 10^3
same,Number of Surviving Organisms,[2]; [15],9.5 × 10^3
same,Number of Surviving Organisms,[2]; [16],1.6 × 10^4
same,Number of Surviving Organisms,"[2]; 0.001% Compound No. 4, 0 hours",4.9 × 10^3
same,Number of Surviving Organisms,"[2]; 0.001% Compound No. 4, 4 hours",1.0 × 10^1
same,Number of Surviving Organisms,[2]; [17],<1
same,Number of Surviving Organisms,[2]; [18],<1
same,Number of Surviving Organisms,"[2]; 0.01% Compound No. 4, 0 hours",4.9 × 10^3
same,Number of Surviving Organisms,"[2]; 0.01% Compound No. 4, 4 hours",<1
same,Number of Surviving Organisms,"[2]; 0.01% Compound No. 4, 24 hours",<1
same,Number of Surviving Organisms,"[2]; 0.01% Compound No. 4, 48 hours",<1
same,Number of Surviving Organisms,[3]; [9],3.3 × 10^3
same,Number of Surviving Organisms,[3]; [10],3.2 × 10^3
same,Number of Surviving Organisms,[3]; [11],2.5 × 10^4
same,Number of Surviving Organisms,[3]; [12],1.3 × 10^5
same,Number of Surviving Organisms,[3]; [13],3.3 × 10^3
same,Number of Surviving Organisms,[3]; [14],3.2 × 10^3
same,Number of Surviving Organisms,[3]; [15],1.5 × 10^4
same,Number of Surviving Organisms,[3]; [16],1.3 × 10^5
same,Number of Surviving Organisms,"[3]; 0.001% Compound No. 4, 0 hours",3.3 × 10^3
same,Number of Surviving Organisms,"[3]; 0.001% Compound No. 4, 4 hours",4.3 × 10^1
same,Number of Surviving Organisms,[3]; [17],1.0 × 10^1
same,Number of Surviving Organisms,[3]; [18],3.4 × 10^1
same,Number of Surviving Organisms,"[3]; 0.01% Compound No. 4, 0 hours",3.3 × 10^3
same,Number of Surviving Organisms,"[3]; 0.01% Compound No. 4, 4 hours",<1
same,Number of Surviving Organisms,"[3]; 0.01% Compound No. 4, 24 hours",<1
same,Number of Surviving Organisms,"[3]; 0.01% Compound No. 4, 48 hours",<1
"[H]/N=C(\N/C(=N/[H])NCCCCCCNC(=N)NC(=N)Nc1ccc(Cl)cc1)Nc1ccc(Cl)cc1 [Chlorhexidine, chlorhexidine, reference compound]",Minimum Cysticidal Concentration,[4],31.3 micrograms/milliliter
same,Number of Surviving Organisms,"[1]; 0.1% Chlorhexidine, 0 hrs",3.2 × 10^2
same,Number of Surviving Organisms,"[1]; 0.1% Chlorhexidine, 4 hrs",<10
same,Number of Surviving Organisms,"[1]; 0.1% Chlorhexidine, 24 hrs",<10
same,Number of Surviving Organisms,"[1]; 0.1% Chlorhexidine, 48 hrs",<10
same,Minimum Cysticidal Concentration,[5],31.25 micrograms/milliliter
same,Minimum Cysticidal Concentration,[6],26.0 micrograms/milliliter
same,Number of Surviving Organisms,"[2]; 0.1% Chlorhexidine, 0 hours",4.9 × 10^3
same,Number of Surviving Organisms,"[2]; 0.1% Chlorhexidine, 4 hours",<1
same,Number of Surviving Organisms,"[2]; 0.1% Chlorhexidine, 24 hours",<1
same,Number of Surviving Organisms,"[2]; 0.1% Chlorhexidine, 48 hours",<1
same,Minimum Cysticidal Concentration,[7],62.5 micrograms/milliliter
same,Minimum Cysticidal Concentration,[8],52.1 micrograms/milliliter
same,Number of Surviving Organisms,"[3]; 0.1% Chlorhexidine, 0 hours",3.3 × 10^3
same,Number of Surviving Organisms,"[3]; 0.1% Chlorhexidine, 4 hours",<1
same,Number of Surviving Organisms,"[3]; 0.1% Chlorhexidine, 24 hours",<1
same,Number of Surviving Organisms,"[3]; 0.1% Chlorhexidine, 48 hours",<1
"polyhexamethylene biguanide [PHMB, reference compound]",Number of Surviving Organisms,"[1]; 0.02% PHMB, 0 hrs",3.2 × 10^2
same,Number of Surviving Organisms,"[1]; 0.02% PHMB, 4 hrs",<10
same,Number of Surviving Organisms,"[1]; 0.02% PHMB, 24 hrs",<10
same,Number of Surviving Organisms,"[1]; 0.02% PHMB, 48 hrs",<10
same,Number of Surviving Organisms,"[2]; 0.02% PHMB, 0 hours",4.9 × 10^3
same,Number of Surviving Organisms,"[2]; 0.02% PHMB, 4 hours",<1
same,Number of Surviving Organisms,"[2]; 0.02% PHMB, 24 hours",<1
same,Number of Surviving Organisms,"[2]; 0.02% PHMB, 48 hours",<1
same,Number of Surviving Organisms,"[3]; 0.02% PHMB, 0 hours",3.3 × 10^3
same,Number of Surviving Organisms,"[3]; 0.02% PHMB, 4 hours",<1
same,Number of Surviving Organisms,"[3]; 0.02% PHMB, 24 hours",<1
same,Number of Surviving Organisms,"[3]; 0.02% PHMB, 48 hours",<1
